Results on 3 molecules are retold here after US20180325117A1, “PROBIOTIC COMPOSITIONS AND USES THEREOF” (priority 2015, published 2018).

Holding throughout (format): in vivo
For assay [1], the system named is turkeys. The assay is described as follows: Turkey weight versus barn standard and mortality, six barns. The source says: A common practice among commercial turkey growing facilities is to compare the weight gain of their flocks against a standard that is based on the performance of the grower's previous flocks. The grower has a standard for each barn, or group of barns, based on their recorded history. […] The flocks in the barns being fed W+ in their water (Barns-055, Barn-043, and Barn-025) exceeded standard weights by 11.7%, while the barns where the turkeys were fed water with chlorine dioxide (Barns-041, Barn-047, and Barn-045) were −7.6% compared to standard weights. The y-axis represents % deviation from a standard (Std)(average for each barn), and the x-axis represents data obtained from turkeys in six different barns (approximately 17,000 turkeys per barn).

Assay [2] concerns turkeys. In words: Turkey mortality with water additive, flocks of 50,000 turkeys. On the set-up: mortality cumulative total per group: concentration or dose not given beside the values. The source says: The mortality of the flock of 50,000 turkeys that consumed water with chlorine dioxide was 6.5% as compared to 3% for a flock of 50,000 turkeys consuming water with W+. The y-axis of FIG. 13 represents the cumulative total mortality (%), and the x-axis represents a 19-week period during which the turkeys were observed. The top dotted line represents a flock (of 50,000 turkeys) with chlorine dioxide added to their water. The middle dotted line represents a flock (of 50,000 turkeys) that for four weeks consumed water treated with chlorine dioxide (5 ppm). After four weeks, the water additive was changed to W+ diluted 1:10,000 (note the reduced slope of the mortality curve at week 5). The bottom solid line represents a flock (of 50,000 turkeys) that was fed water with W+.

In the next assay the test system is Clostridial scours. The assay is described as follows: Swine gut health: scours on test farm. The following applies: total population of 3,850 swine; chlorine dioxide standard water protocol, then W+ 1:6,000 in water lines. Here is the method: Scours (dysentery) is a common ailment in swine and is symptomatic of poor gut health (gastrointestinal tract health). […] Column (B) is the number of swine (397) that were infected with scours while on a standard water protocol of chlorine dioxide to prevent biofilm in the water lines. The addition of chlorine dioxide was stopped and W+ (at a dilution of 1:6,000) was added to the water lines, the number of swine with scours was reduced to 23 (Column (C)), a 94% reduction in the number of swine with Clostridial scours.

For another assay, the system named is Mastitis. In words: Teat spray of lactating dairy cows: somatic cell count and Mastitis. The following applies: 210 lactating cows. From the text: The efficacy of iodine versus D+t128 in reducing the presence of Mastitis was studied. […] 210 lactating dairy cows were milked twice a day for four weeks. The somatic cell count (SCC) of the herd at the beginning of the test period was 263,000/ml, as shown in the two right-hand columns of the top panel of FIG. 21. The standard protocol using iodine was as follows: prior to each milking, the teats of the dairy cows were sprayed with 0.5% iodine. After each milking, the teats of the dairy cows were sprayed with 1.0% iodine. Mastitis was evident on 27 of the cows (see bottom panel of FIG. 21). Treatment with iodine was then stopped, and D+t128 was used to treat the teats of the cows. Prior to each milking, the teats of the dairy cows were sprayed with 1.25 ounces of D+t128 at a dilution of 1:128. After each milking, the teats of the dairy cows were sprayed with 1.25 ounces of D+t128 at a dilution of 1:128. At the end of the test period, the SSC had decreased from 263,000/ml to 120,000/ml in the herd treated with D+t128 (see two right-hand columns of the top panel of FIG. 21). The lower the SSC, the healthier the cow; the lower SSC reading correlates with the reduced number of cows with Mastitis. The number of cows with Mastitis had decreased from 27 to 12 (see two right-hand columns of bottom panel of FIG. 21). The SSC values are an average of all milk obtained from the 210 lactating cows. […]

In a further assay the test system is hairy wart and foot rot. In words: Hoof spray of lactating cows: lameness, hairy wart and foot rot.

Regarding `[O][Cl+][O-]` [chlorine dioxide], in the assay with turkeys [1] (FIG. 23, turkeys fed water with additive), the “mortality rate (average)” value worked out at 12.3%. The “deviation from standard weights” value with turkeys [1] (three barns per water additive, approximately 17,000 turkeys per barn, FIG. 14) is reported as −7.6%. For the same molecule, the “mortality cumulative total per group” value in the assay on turkeys [2] (Week 1) is listed as 0.74%; in the assay with turkeys [2] (Week 2), 1.45%; in the assay on turkeys [2] (Week 3) it was 1.84%; with turkeys [2] (Week 4) it was 2.15%; in the assay on turkeys [2] (Week 5), 3.52%; in the assay with turkeys [2] (Week 6) it was 3.97%. The “mortality cumulative total per group” value came out at 4.22% in the assay with turkeys [2] (Week 7); 4.46% in the assay on turkeys [2] (Week 8); 4.62% in the assay with turkeys [2] (Week 9); 4.79% in the assay with turkeys [2] (Week 10); 5.01% in the assay on turkeys [2] (Week 11); 5.14% in the assay with turkeys [2] (Week 12). Also, the “mortality cumulative total per group” value was found to be 5.29% in the assay with turkeys [2] (Week 13); 5.46% in the assay on turkeys [2] (Week 14); 5.63% in the assay with turkeys [2] (Week 15); 5.82% in the assay with turkeys [2] (Week 16); 6.05% with turkeys [2] (Week 17); 6.29% in the assay on turkeys [2] (Week 18). The “mortality cumulative total per group” value in the assay with turkeys [2] (Week 19) is listed as 6.54%; in the assay on turkeys [2] (Week 20) it was 6.84%; with turkeys [2] (Week 21) it was 6.74%. The “mortality of the flock (cumulative total)” value with turkeys [2] (flock of 50,000 turkeys, FIG. 13, 19-week period, W+ 1:10,000, chlorine dioxide 5 ppm in water) turned out to be 6.5%. The “number of swine infected with scours” value in the assay on Clostridial scours is 397.

In the case of `II` [iodine], in the assay with Mastitis (iodine protocol = beginning of test period, D+t128 1:128 teat spray before and after each milking = end of 28-day test period), the “somatic cell count (SCC) of the herd” value is on record as 263,000 /ml. Further, the “number of cows with Mastitis” value with Mastitis (iodine protocol = start, D+t128 1:128 = finish of 28-day test period) is reported as 27.

On to `O=S(=O)([O-])[O-].[Cu+2]` [Copper-Sulphate], for which the “percentage of lame cows” value with hairy wart and foot rot (herd of 500 lactating cows, Copper-Sulphate spray = T0 start, D+h100 1:100 spray = day 35) is recorded as “over 35%”. For the same molecule, in the assay on hairy wart and foot rot (start of test period, prior Copper-Sulphate spray, data not shown), the “cows with swelling indicating new hairy wart formation” value was 60%.
